{
  "source": "patent US20120321694A1",
  "about": "“COMPOSITIONS AND USES” (priority 2010, published 2012)",
  "key": {"APPSwe/PS1 mice": {"tested_on": "APPSwe/PS1 mice", "test": "T-water maze", "assay_type": "in vivo", "conditions": "for T-water maze, spatial memory: Example 21, twelve weekly injections, 3D MPL 50 μg, CRX527 20 μg, CRX601 20 μg i.p., AS01B 1/10th human dose i.m., vs non treated, FIG. 24", "method": "Five groups of APPSwe/PS1 mice received one a week for a period of 12 weeks the following treatment: • Gr1: APPSwe/PS1+NaCl 0.9% n(=20), i.p. injections • Gr4: APPSwe/PS1+CRX527 (20 μg/mouse, 130 μl, n=10), i.p. injections • Gr5: APPSwe/PS1+CRX601 (20 μg/mouse, 130 μl, n=10), i.p. injections • Gr6: APPSwe/PS1+3D MPL (50 μg/mouse, 130 μl, n=10), i.p. injections • Gr8 APPSwe/PS1+AS15 ( 1/10th of human dose, 50 μl, n=10), i.m. injections • Gr9: APPSwe/PS1+AS01B ( 1/10th of human dose, 50 μl, n=10), i.m. injections\nMice were tested during the “light on” phase of the day. Behavioral experimenter was blinded to the genetic and treatment status of animals. To assess hippocampal-dependent spatial learning and memory, mice were trained in the T-water maze task. In this paradigm, we evaluate the mouse's ability to remember the spatial location of submerged platform. The T-maze apparatus (length of stem, 64 cm; length of arms, 30 cm; width, 12 cm; height of walls, 16 cm) was made of clear fiberglass and filled with water (23±1° C.) at a height of 12 cm. A platform (11×11 cm) was placed at the end of the target arm and was submerged 1 cm below the surface. The acquisition phase allows to evaluate animals for left-right spatial learning. During the first two trials, platforms were placed on each arms of the maze to test the spontaneous turning preference of the mouse. After these two trials, the least chosen arm was reinforced by the escape platform. The mice were placed in the stem of the T-maze and choose to swim either left or right until they found the submerged platform and escape to it, to a maximum of 60 s. After reaching the platform, the mice remained on it for 20 s and then were immediately placed back in the maze. […] Repeated trials were presented on the same day up to a maximum of 48 trials. A rest period of at least 10-15 min intervened between each block of 10 trials. A mouse was considered to have learned the task when it made no errors in a block of five consecutive trials. The reversal learning phase was then conducted 48 h later. During this phase, the same protocol was repeated, except that the mice were trained to find the escape platform on the opposite side to that on which they had learned on acquisition phase. The number of trials to reach the criterion (five of five correct choices made on consecutive trials) was measured as well as the latency to find the escape platform."}, "[1]": {"tested_on": "CD11b+ peripheral blood monocytes", "test": "In vivo uptake assay of Aβ42 after immunization or passive immunotherapy", "design": "species or system C57BL/6 mice", "conditions": "FIG. 22", "method": "(§1) Cells were finally washed twice and fixed for 15 min. with a 2% paraformaldehyde solution in PBS. FMOs controls were always included in the assays.\n(§2) Cells were finally washed twice and fixed for 15 min. with a 2% paraformaldehyde solution in PBS. FMOs controls were always included in the assays. Samples were acquired on a flow cytometer (BD FACSCanto II) and data analyzed with the FACSDiva software (BD Biosciences). Monocytes were identified and counted by their Side/Forward scatter properties, excluding debris and gated as CD3-/CD45R/B220-/Ly-6G-/NK1.1-(Lineage-)/CD11b+ cells."}, "[2]": {"tested_on": "CD11b+ peripheral blood monocytes", "test": "Ex vivo uptake assay of Aβ1-42 by peripheral blood monocytes", "assay_type": "cell-based, C57BL/6 mice", "method": "(§3) Red blood cell lysis was performed twice on pooled blood with Ammonium Chloride-based Buffer (Sigma, Steinheim, Germany) and cells were counted with the EasyCount™ System (Immunicon).\nas §1, §3"}, "[3]": {"tested_on": "Lineage- CD11b+ monocytes in peripheral blood", "test": "Monocyte analysis and counting after adjuvant injection in mice", "assay_type": "in vivo, C57BL/6 mice", "method": "(§4) 24-Hours after injection of the TLR adjuvants, peripheral blood was drawn from C57BL/6 mice via cardiac puncture with lithium-heparin as anticoagulant. Red blood cell lysis was performed twice on pooled blood with Ammonium Chloride-based Buffer (Sigma, Steinheim, Germany) and cells were counted with the EasyCount™ System (Immunicon). […] Cells were finally washed three times and fixed for 15 min. with a 2% paraformaldehyde solution in PBS. Fluorescence minus one (FMO) controls were always included in the assays for fluorescent compensation setting. Samples were acquired on a flow cytometer (BD FACSCanto II) and data analyzed with the FACSDiva software (BD Biosciences). Monocytes were identified by their Side/Forward scatter properties and gated as CD3-/CD45R/B220-/Ly-6G-/NK1.1-(Lineage-)/CD11b+ cells. CD11b+ monocyte frequency was reported as a percentage of the total cells excluding debris.\nas §4, with “24 hours” for “24-Hours”, “each immunomodulator,” for “the TLR adjuvants,”, “min” for “min.”, “monocytes” for “monocyte”\nas §2"}, "[4]": {"tested_on": "human microglial cell line CHME", "test": "Phagocytosis of Aβ1-42 by CHME microglial cell line", "assay_type": "cell-based", "conditions": "FIG. 18", "method": "Phagocytosis of beta-amyloid 1-42 peptide by the human microglial cell line CHME was observed after the addition of TLR2 agonist containing adjuvants Protollin and Pam3CysLip peptide. […] The synthetic peptide sequence of the Pam3Cys Lip peptide is described herein: Pam3Cys—SQ EPAAPAAEAT PAAEAP. Protollin was used at concentration 1 ug per ml based on the LPS content from Shigella flexneri. Pam3Cys lip peptide was used at concentration of 5 ug per ml of the pure tri-palmitoylated peptide.\nAdditionally, cells were imaged using 42 HiLyte 488 Fluo (Anaspec, Inc.) at 2 ug per ml in DMEM complete media (Invitrogen). Lysotracker red staining was performed and slides were mounted and co-stained with DAPI to show the nucleus (blue). […] Lysotracker red reagent was purchased from Invitrogen and used as manufacturer recommendations."}},
  "note": "Where no end group is shown, it is not given here.",
  "data": [
    {"compound": "CCCCCCCCCCC[C@H](CC(=O)N[C@H]1[C@H](OC[C@H](NC(=O)C[C@@H](CCCCCCCCCCC)OC(=O)CCCCCCCCC)C(=O)O)O[C@H](CO)[C@@H](OP(=O)(O)O)[C@@H]1OC(=O)C[C@@H](CCCCCCCCCCC)OC(=O)CCCCCCCCC)OC(=O)CCCCCCCCC", "note": "[CRX527]", "values": [
      {"measurement": "T-water maze, spatial memory", "setting": "APPSwe/PS1 mice", "result": "spatial memory improvement"},
      {"measurement": "T-water maze, spatial memory", "setting": "APPSwe/PS1 mice; listed as CRX 527", "result": "significant improvements in behaviour"}
    ]},
    {"compound": "CCCCCCCCCCC[C@H](CC(=O)N[C@H]1[C@H](OC[C@H](NC(=O)C[C@@H](CCCCCCCCCCC)OCCCCCCCCCC)C(=O)O)O[C@H](CO)[C@@H](OP(=O)(O)O)[C@@H]1OC(=O)C[C@@H](CCCCCCCCCCC)OCCCCCCCCCC)OCCCCCCCCCC", "note": "[CRX601]", "values": [
      {"measurement": "antibody-mediated Aβ uptake in peripheral blood monocytes", "setting": "[1]; CRX601 at 20 ug when combined with AS03 emulsion", "result": "partially quenched"},
      {"measurement": "antibody-mediated Aβ uptake in peripheral blood monocytes", "setting": "[1]; CRX601 at 20 ug, single i.m., plus 15 ug 2E7", "result": "triggers highest Aβ uptake"},
      {"measurement": "antibody-mediated Aβ uptake in peripheral blood monocytes", "setting": "[1]; single i.m. injection of different doses plus 15 ug 2E7, Aβ Fluor i.v. 24 hr later", "result": "Dose-response observed"},
      {"measurement": "ex vivo uptake of Aβ42 by peripheral blood monocytes", "setting": "[2]; i.m. AS01B mouse full dose (5 ug per mouse) or CRX601 2 μg, vs PBS group, FIG. 14", "result": "uptake an higher amount of Aβ42"},
      {"measurement": "dose of maximum monocyte response", "setting": "[3]; single i.m., 0.2-20 ug/mouse, FIG. 12", "result": 10, "unit": "µg"},
      {"measurement": "dose enough to trigger an increase of the monocyte count", "setting": "[3]; single i.m., 24 hrs, compared to PBS, FIG. 12", "result": 1, "unit": "µg"},
      {"measurement": "effect on monocyte count at 20 μg dose", "setting": "[3]; single i.m., FIG. 12", "result": "down modulated"},
      {"measurement": "T-water maze, spatial memory", "setting": "APPSwe/PS1 mice", "result": "spatial memory improvement"},
      {"measurement": "T-water maze, spatial memory", "setting": "APPSwe/PS1 mice; listed as CRX 601", "result": "significant improvements in behaviour"},
      {"measurement": "T-water maze, cognitive functions", "setting": "APPSwe/PS1 mice; Example 22, i.m., 12× weekly from 3 months old, CRX601 2 μg, CRX601 2 ug in AS03, 3D MPL 5 ug, AS01B 1/10 human dose, vs PBS, unpaired t-tests, FIG. 27A", "result": "significant improvement of their cognitive functions"}
    ]},
    {"compound": "Pam3Cys—SQ EPAAPAAEAT PAAEAP (Pam3Cys-SQEPAAPAAEATPAAEAP) [Pam3CysLip peptide, TLR2 agonist, tri-palmitoylated peptide from Neisseria meningitidis strain 8047]", "values": [
      {"measurement": "phagocytosis of beta-amyloid 1-42 peptide", "setting": "[4]; 5 ug per ml, pre-incubation 18 hrs", "result": "86 % of cells"},
      {"measurement": "amyloid phagocytic activity", "setting": "[4]; Pam3CysLip peptide 5 ug per ml, Protollin 1 ug per ml (LPS content), compared to PBS", "result": "higher amyloid phagocytic activity"}
    ]},
    {"compound": "QS21 [reference compound]", "values": [
      {"measurement": "ex vivo Aβ42 uptake by peripheral blood monocytes", "setting": "[2]; i.m. injection, 24 hrs, compared to PBS, QS21 (5 ug), liposomal MPL (5 ug) or MPL (5 ug), FIG. 20", "result": "does not promote Aβ uptake"},
      {"measurement": "number of monocytes, of total peripheral white blood cells", "setting": "[3]; 24 hrs after single i.m. injection (5 μg QS21), FIG. 19A", "result": 9.1, "unit": "%"},
      {"measurement": "activated Ly6C+ monocytes", "setting": "[3]; 24 hrs after single i.m. injection (5 μg QS21), FIG. 19B", "result": 75, "unit": "%"}
    ]}
  ]
}
